These results are taken from patent publication US7928140B2, “Benzothiazole PI3 kinase modulators for cancer treatment” (Amgen Inc., priority 2007, dated 2011).

For one assay, the target named is T1, PI3K β (Homo sapiens, UniProt P42338).
T1 construct: Full length p110 subunits of PI3K α, β and δ, N-terminally labeled with polyHis tag; polyHis (N); made in house; host or cells: Sf9 insect cells (baculovirus)
As to the kind of experiment: In vitro PI3 kinase enzyme assay (beta), ATP loss, bioluminescence.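 Also: purified p110β/p85 heterodimer with PtdIns(4,5)P2 as acceptor, incubated at room temperature, leftover ATP read by luminescence, inhibition scaled to compound-free wells with and without enzyme.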 The class given is biochemical. The note with it: read-out: PI3Kβ ATP loss IC50.

In assay [1] the test system is phosphorylation of Serine 473 in Akt, HCT 116 human colon carcinoma cells. As to the kind of experiment: Cell-based phospho-AKT Ser473 assay (MSD sandwich immunoassay, IGF-1 stimulated). The following applies: Homo sapiens, HCT-116, HCT 116 cells; read-out: HCT 116 pAKT IC50. As for the experimental part:
This assay determines the ability of test compounds to inhibit the phosphorylation of […] in Akt using a MSD based sandwich immunoassay (Meso Scale Detection, catalogue # N411CAB-1). […] Prior to the assay cells were detached from the culture flask with trypsin, and re-suspended in complete media to give a final concentration of 1.6×10^5 cells per ml. Aliquots (100 μl) of the HCT116 cell suspension were seeded into each well of a 96 well tissue culture plate (Corning Incorporated COSTAR, catalogue#3595) to give a final density of 16,000 cells per well. Cells were then incubated overnight at 37° C. The following day the cells were treated with serially diluted test compounds and incubated for 2 hours at 37° C. […] As a maximum response control, wells contained 0.5% DMSO in place of test compound. The plates were mixed at 700 rpm for 2 min to ensure even distribution of the test compound and incubated for 2 hours at 37° C. Cells were then stimulated with insulin-like growth factor 1 (Sigma, product #13769) at final concentration of 100 ng/ml for 15 minutes at 37° C. The media was then removed and the cells treated with 80 μl cell-lysis buffer (MSD) containing a cocktail of protease and phosphatase inhibitors for one hour at 4° C. […] The detection antibody was removed and plates were then washed four times with 200 μl per well of Tris wash buffer. An aliquot of 150 μl of diluted MSD read buffer was then applied to each well, and the electrochemiluminescent signal was measured using a MSD SECTORTM plate reader. This instrument measures the intensity of emitted light to determine a quantitative measure of phosphorylated Akt in each well. The dose-response data obtained with each compound were analyzed and the IC50 inhibition of Akt phosphorylation at Ser473 calculated.

The target in the next assay is T2, PI3K α (Homo sapiens, UniProt P42336).
T2 construct: Full length p110 subunits of PI3K α, β and δ, N-terminally labeled with polyHis tag; polyHis (N); made in house; host or cells: Sf9 insect cells (baculovirus)
As to the kind of experiment: In vitro PI3 kinase enzyme assay (alpha), ATP loss, bioluminescence.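 Also: purified p110α/p85 heterodimer acting on PtdIns(4,5)P2 at room temperature, remaining ATP read by luminescence, inhibition scaled between compound-free wells with and without enzyme.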 The note with it: read-out: PI3Kα ATP loss IC50. The format is biochemical.

T1 sequence (P42338 whole entry): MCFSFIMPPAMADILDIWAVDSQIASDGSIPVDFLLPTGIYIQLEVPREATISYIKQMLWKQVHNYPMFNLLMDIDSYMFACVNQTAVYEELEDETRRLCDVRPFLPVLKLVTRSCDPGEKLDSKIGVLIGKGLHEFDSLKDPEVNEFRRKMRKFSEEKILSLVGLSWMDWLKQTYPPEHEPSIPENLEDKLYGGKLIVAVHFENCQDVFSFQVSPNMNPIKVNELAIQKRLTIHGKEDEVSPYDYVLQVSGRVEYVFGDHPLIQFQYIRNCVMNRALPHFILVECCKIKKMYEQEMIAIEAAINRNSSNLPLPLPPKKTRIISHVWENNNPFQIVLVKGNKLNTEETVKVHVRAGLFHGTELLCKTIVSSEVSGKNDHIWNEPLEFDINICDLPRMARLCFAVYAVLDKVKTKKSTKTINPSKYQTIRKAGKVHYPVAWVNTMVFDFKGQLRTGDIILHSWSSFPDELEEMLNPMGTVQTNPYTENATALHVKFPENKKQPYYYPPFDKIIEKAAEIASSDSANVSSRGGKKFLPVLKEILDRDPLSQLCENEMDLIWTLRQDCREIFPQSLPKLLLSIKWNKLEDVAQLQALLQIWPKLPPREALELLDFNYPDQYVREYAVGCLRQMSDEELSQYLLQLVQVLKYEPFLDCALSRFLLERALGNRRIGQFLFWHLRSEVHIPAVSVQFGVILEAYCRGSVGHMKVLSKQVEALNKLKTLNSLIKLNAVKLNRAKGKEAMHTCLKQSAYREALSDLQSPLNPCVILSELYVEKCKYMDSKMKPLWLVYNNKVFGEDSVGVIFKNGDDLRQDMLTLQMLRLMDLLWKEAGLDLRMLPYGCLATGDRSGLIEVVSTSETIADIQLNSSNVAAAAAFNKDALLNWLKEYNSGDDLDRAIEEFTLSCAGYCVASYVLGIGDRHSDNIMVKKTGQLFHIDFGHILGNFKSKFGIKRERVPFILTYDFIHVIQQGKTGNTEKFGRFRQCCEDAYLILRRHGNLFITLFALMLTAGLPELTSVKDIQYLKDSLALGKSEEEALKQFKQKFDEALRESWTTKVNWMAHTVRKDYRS
T1 sequence (P27986 whole entry partner): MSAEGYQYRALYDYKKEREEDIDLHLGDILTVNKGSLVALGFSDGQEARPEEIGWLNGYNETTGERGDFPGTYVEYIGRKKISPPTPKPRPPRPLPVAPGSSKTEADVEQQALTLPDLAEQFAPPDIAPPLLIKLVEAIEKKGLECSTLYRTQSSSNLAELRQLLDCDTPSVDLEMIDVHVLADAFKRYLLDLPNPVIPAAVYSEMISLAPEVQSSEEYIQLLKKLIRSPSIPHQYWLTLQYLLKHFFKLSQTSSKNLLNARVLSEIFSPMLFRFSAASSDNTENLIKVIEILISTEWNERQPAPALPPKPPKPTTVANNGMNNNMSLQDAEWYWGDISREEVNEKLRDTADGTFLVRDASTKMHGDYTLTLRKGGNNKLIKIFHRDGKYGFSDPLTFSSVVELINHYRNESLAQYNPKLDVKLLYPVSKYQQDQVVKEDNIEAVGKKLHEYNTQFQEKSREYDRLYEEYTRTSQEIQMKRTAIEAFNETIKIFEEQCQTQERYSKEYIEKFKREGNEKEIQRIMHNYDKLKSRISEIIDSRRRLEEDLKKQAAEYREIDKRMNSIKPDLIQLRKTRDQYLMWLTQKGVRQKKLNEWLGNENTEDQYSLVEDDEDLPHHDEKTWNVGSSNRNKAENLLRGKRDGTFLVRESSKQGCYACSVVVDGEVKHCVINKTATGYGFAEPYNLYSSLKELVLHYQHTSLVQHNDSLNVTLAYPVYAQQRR
T2 sequence (P42336 whole entry, species assumed): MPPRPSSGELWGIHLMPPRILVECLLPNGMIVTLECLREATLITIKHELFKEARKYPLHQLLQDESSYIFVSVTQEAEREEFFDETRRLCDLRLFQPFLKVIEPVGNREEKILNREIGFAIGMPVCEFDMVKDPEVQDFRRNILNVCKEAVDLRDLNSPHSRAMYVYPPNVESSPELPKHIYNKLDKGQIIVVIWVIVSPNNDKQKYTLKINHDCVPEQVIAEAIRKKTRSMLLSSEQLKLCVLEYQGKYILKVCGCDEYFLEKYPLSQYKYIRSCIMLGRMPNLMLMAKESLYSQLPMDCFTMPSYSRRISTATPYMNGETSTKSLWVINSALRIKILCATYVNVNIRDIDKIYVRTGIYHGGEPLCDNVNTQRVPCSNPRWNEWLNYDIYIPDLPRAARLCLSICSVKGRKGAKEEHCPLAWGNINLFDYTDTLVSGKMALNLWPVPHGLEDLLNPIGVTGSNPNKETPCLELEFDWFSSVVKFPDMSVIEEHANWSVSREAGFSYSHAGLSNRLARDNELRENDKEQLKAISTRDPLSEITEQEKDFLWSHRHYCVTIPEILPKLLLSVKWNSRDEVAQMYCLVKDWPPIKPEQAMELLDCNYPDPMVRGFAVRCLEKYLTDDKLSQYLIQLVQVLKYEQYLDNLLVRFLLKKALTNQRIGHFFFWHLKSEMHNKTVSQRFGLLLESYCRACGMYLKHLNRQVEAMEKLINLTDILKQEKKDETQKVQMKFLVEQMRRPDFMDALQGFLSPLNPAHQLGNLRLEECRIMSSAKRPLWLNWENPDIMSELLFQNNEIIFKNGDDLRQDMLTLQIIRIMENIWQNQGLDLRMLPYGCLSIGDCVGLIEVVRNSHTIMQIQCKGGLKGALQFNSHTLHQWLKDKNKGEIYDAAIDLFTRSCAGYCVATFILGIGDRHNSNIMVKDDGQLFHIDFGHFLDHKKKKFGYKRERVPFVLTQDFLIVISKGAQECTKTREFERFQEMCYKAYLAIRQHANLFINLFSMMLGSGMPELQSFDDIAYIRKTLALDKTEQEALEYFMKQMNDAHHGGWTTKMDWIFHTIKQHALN
T2 sequence (P27986 whole entry partner, species assumed): as the sequence (P27986 whole entry partner) above
Description for PI3K α: Full length p110 subunits of PI3K α, β and δ, N-terminally labeled with polyHis tag, were co-expressed with p85 in baculovirus expression vectors in sf9 insect cells. P110/p85 heterodimers were purified by sequential Ni-NTA, Q-HP, and Superdex-100 chromatography. Purified α, β and δ isozymes were stored at −20° C. in 20 mM Tris, pH 8, 0.2M NaCl, 50% glycerol, 5 mM DTT, 2 mM Na cholate.
PI3K enzyme assays (alpha, beta, delta and gamma) were performed in 25 mL with the above final concentrations of components in white polypropylene plates (Costar catalogue #3355). Phosphatidyl inositol phosphoacceptor, PtdIns(4,5)P2 (eg. P4508) was obtained from Echelon Biosciences. The ATPase activity of the alpha and gamma isozymes was not greatly stimulated by PtdIns(4,5)P2 under these conditions and was therefore omitted from the assay of these isozymes. Test compounds were dissolved in DMSO and diluted with three-fold serial dilutions. The compound in DMSO (1 μL) was added per test well, and the inhibition relative to reactions containing no compound, with and without enzyme was determined. After assay incubation at RT, the reaction was stopped and residual ATP determined by addition of an equal volume of a commercial ATP bioluminescence kit (Perkin Elmer EasyLite) according to the manufacturer's instructions, and detected using an Analyst GT luminometer.

On to `CC(=O)Nc1nc2ccc(-c3cccc(N(C)S(=O)(=O)c4ccc(C)cc4)n3)cc2s1` [Example 74, N-(6-(6-(N,4-Dimethylphenylsulfonamido)pyridin-2-yl)benzo[d]thiazol-2-yl)acetamide], for which the values for the IC50 (on PI3K β; in assay [1]) were 202 nM and 85.9 nM, respectively.

`CC(=O)Nc1nc2ccc(-c3cncc(OC[C@H]4CCC(=O)N4)c3)cc2s1` [Example 294, N-(6-(5-(((R)-5-oxopyrrolidin-2-yl)methoxy)pyridin-3-yl)benzo[d]thiazol-2-yl)acetamide]: in assay [1], the IC50 is above 5000 nM.

Take `CC(=O)Nc1nc2ccc(-c3cnc(Cl)c(NS(=O)(=O)c4ccccc4)c3)cc2s1` [Example 181, N-(6-(6-chloro-5-(phenylsulfonamido)pyridin-3-yl)benzo[d]thiazol-2-yl)acetamide]: the results for the IC50 (on PI3K β; in assay [1]) were 14.5 nM and 10.4 nM, respectively.

With `CC(=O)Nc1nc2ccc(-c3ccnc(N(C)S(=O)(=O)c4ccccc4F)n3)cc2s1` [Example 92, N-(6-(2-(2-Fluoro-N-methylphenylsulfonamido)pyrimidin-4-yl)benzo[d]thiazol-2-yl)acetamide], the IC50 on PI3K β came to 310 nM; in assay [1] it was 888 nM.

For `COc1ccc(S(=O)(=O)Nc2nccc(-c3ccc4nc(NC(C)=O)sc4c3)n2)cc1` [Example 78, N-(6-(2-(((4-methoxyphenyl)sulfonyl)amino)-4-pyrimidinyl)-1,3-benzothiazol-2-yl)acetamide], the figures for the IC50 (at PI3K β; in assay [1]) were 67.2 nM and 428 nM, respectively.

In the case of `CC(=O)Nc1nc2ccc(-c3ccnc(Sc4ccccc4C)n3)cc2s1` [Example 34, N-(6-(2-((2-methylphenyl)sulfanyl)-4-pyrimidinyl)-1,3-benzothiazol-2-yl)acetamide], the IC50 came out at 1090 nM on PI3K β and 2160 nM in assay [1].

For `CC(=O)Nc1nc2ccc(-c3cncc(NC(C)(C)C)n3)cc2s1` [Example 227, N-(6-(6-(tert-butylamino)pyrazin-2-yl)benzo[d]thiazol-2-yl)acetamide], in assay [1], the IC50 was found to be 362 nM.

As for `CC(=O)Nc1nc2ccc(-c3cncc(O)c3)cc2s1` [Example 296, N-(6-(5-hydroxypyridin-3-yl)benzo[d]thiazol-2-yl)acetamide], the IC50 in assay [1] came to 418 nM.

On to `CC(=O)Nc1nc2ccc(-c3ccnc(OCc4ccc(F)cc4)n3)cc2s1` [Example 39, N-(6-(2-((4-fluorobenzyl)oxy)-4-pyrimidinyl)-1,3-benzothiazol-2-yl)acetamide], for which the IC50 at PI3K β is 7910 nM; in assay [1] it was above 40000 nM.

For `CC(=O)Nc1nc2ccc(-c3cnc(Cl)c(NS(=O)(=O)c4ccc(F)cc4)c3)cc2s1` [Example 162, N-(6-(6-Chloro-5-(4-fluorophenylsulfonamido)pyridin-3-yl)benzo[d]thiazol-2-yl)acetamide], the IC50 in assay [1] came to 10.4 nM.

For the molecule `CC(=O)Nc1nc2ccc(-c3ccnc(NC(C)(C)c4ccccc4)n3)cc2s1` [Example 100], the IC50 on PI3K β came to 595 nM; in assay [1], 698 nM.

As for `CC(=O)Nc1nc2ccc(-c3cnc(Cl)c(NS(=O)(=O)c4ccc(C(C)(C)C)cc4)c3)cc2s1` [Example 191, N-(6-(5-(4-tert-butylphenylsulfonamido)-6-chloropyridin-3-yl)benzo[d]thiazol-2-yl)acetamide], the figures for the IC50 (on PI3K β; in assay [1]) were 4.2 nM and 2.6 nM, respectively.

Turning to `Nc1nc2ccc(-c3cnc(Cl)c(NS(=O)(=O)c4ccc(F)cc4)c3)cc2s1` [Example 192, N-(5-(2-aminobenzo[d]thiazol-6-yl)-2-chloropyridin-3-yl)-4-fluorobenzenesulfonamide], the values for the IC50 (on PI3K β; in assay [1]) were 11.6 nM and 151 nM, respectively.

Turning to `CC(=O)Nc1nc2ccc(-c3cnc(Cl)c(NS(=O)(=O)c4cccc(Cl)c4)c3)cc2s1` [Example 185, N-(6-(6-chloro-5-(3-chlorophenylsulfonamido)pyridin-3-yl)benzo[d]thiazol-2-yl)acetamide], the IC50 at PI3K β was found to be 8.1 nM; in assay [1], 5.9 nM.

Consider `CC(=O)Nc1nc2ccc(-c3ccnc(NS(=O)(=O)c4ccc(F)cc4)n3)cc2s1` [Example 80, N-(6-(2-(((4-fluorophenyl)sulfonyl)amino)-4-pyrimidinyl)-1,3-benzothiazol-2-yl)acetamide], for which the IC50 came to 405 nM on PI3K β and 3220 nM in assay [1].

As to `CC(=O)Nc1nc2ccc(-c3cnc(Cl)c(NS(=O)(=O)c4ccc(Cl)cc4)c3)cc2s1` [Example 180, N-(6-(6-chloro-5-(4-chlorophenylsulfonamido)pyridin-3-yl)benzo[d]thiazol-2-yl)acetamide], the IC50 was determined as 8.7 nM on PI3K β and 12.6 nM in assay [1].

Take `CC(=O)Nc1nc2ccc(-c3cncc(N4CC5CCC(CC5)C4)n3)cc2s1` [Example 300, N-(6-(6-(3-aza-bicyclo[3.2.2]nonan-3-yl)pyrazin-2-yl)benzo[d]thiazol-2-yl)acetamide]: in assay [1], the IC50 was 8940 nM.

`CC(=O)Nc1nc2ccc(-c3ccc(Cl)nc3)cc2s1` [Example 297, N-(6-(6-chloropyridin-3-yl)benzo[d]thiazol-2-yl)acetamide]: the IC50 in assay [1] was determined as 1190 nM.

In the case of `COCC(=O)NCCOc1cncc(-c2ccc3nc(NC(C)=O)sc3c2)c1` [Example 298, N-(2-(5-(2-(N-actyl)aminobenzo[d]thiazol-6-yl)pyridin-3-yloxy)ethyl)-2-methoxyacetamide], the IC50 in assay [1] turned out to be 1830 nM.

As to `CC(=O)Nc1nc2ccc(-c3cc(C)nc(N)n3)cc2s1` [Example 101, N-(6-(2-Amino-6-methylpyrimidin-4-yl)benzo[d]thiazol-2-yl)acetamide], the figures for the IC50 at PI3K β and at PI3K α were 9990 nM and 4190 nM, respectively.

As for `COCCNc1nccc(-c2ccc3nc(N)sc3c2)n1` [Example 48, 6-(2-((2-methoxyethyl)amino)-4-pyrimidinyl)-1,3-benzothiazol-2-amine], the figures for the IC50 at PI3K β and at PI3K α were above 40000 nM and 18100 nM, respectively.

As for `CC(=O)Nc1nc2ccc(-c3cncc(OCCN4CCC(C)C4=O)c3)cc2s1` (stereo not drawn) [Example 253], the IC50 at PI3K β stood at 45600 nM; at PI3K α, 1540 nM.

Consider `O=C(Nc1nc2ccc(-c3ccnc(OCc4ccccc4)n3)cc2s1)c1ccccc1` [Example 58, N-(6-(2-(benzyloxy)-4-pyrimidinyl)-1,3-benzothiazol-2-yl)benzamide], for which the IC50 was 3930 nM on PI3K β and above 40000 nM at PI3K α.

Consider `CC(=O)Nc1nc2ccc(-c3ccnc(N(C)S(=O)(=O)c4cccc5ccccc45)n3)cc2s1` [Example 207, N-(6-(2-(N-methylnaphthalene-1-sulfonamido)pyrimidin-4-yl)benzo[d]thiazol-2-yl)acetamide], for which the values for the IC50 at PI3K β and at PI3K α were 221 nM and 126 nM, respectively.

With `CC(=O)Nc1nc2ccc(-c3ccnc(OCCCN4CCOC4=O)n3)cc2s1` [Example 32, N-(6-(2-(3-(2-oxo-1,3-oxazolidin-3-yl)propoxy)-4-pyrimidinyl)-1,3-benzothiazol-2-yl)acetamide], the IC50 at PI3K β is above 40000 nM; on PI3K α, 601 nM.

On to `CN(C)CC(=O)Nc1nc2ccc(-c3ccnc(OCc4ccccc4)n3)cc2s1` [Example 59, N-(6-(2-(benzyloxy)-4-pyrimidinyl)-1,3-benzothiazol-2-yl)-N~2~,N~2~-dimethylglycinamide], for which the IC50 was 9800 nM at PI3K β and 11300 nM at PI3K α.
